Active and inactive are the calls of the source. The calls are words filed in the database; no cut-off is given here.
Tests used:
[1] = target: T1, Heat shock protein HSP 90-beta (Homo sapiens, UniProt P08238)
Description: Inhibition of FITC-GDA binding to human HSP90-beta incubated for 2 hrs by fluorescence polarization assay

[2] = target: T2, Heat shock protein HSP 90-alpha (Homo sapiens, UniProt P07900)
Description: Inhibition of FITC-GDA binding to human HSP90-alpha incubated for 2 hrs by fluorescence polarization assay

SK-BR-3 [3] = experiment: Induction of heat shock response in human SK-BR-3 cells at 10 uM incubated for 18 hrs by Western blot analysis; format: cell-based; settings: sk-br-3, 18 h
[4] = tested on: Panel NCI-60 (60 carcinoma cell lines); experiment: Growth inhibition of human NCI60 cells incubated for 72 hrs by Cell Titer-Glo luminescent cell viability assay; format: functional
[5] = target: T1, Heat shock protein HSP 90-beta; settings: HCT-116, dose 300-1000 nM, time 24.0 hrs
[6] = target: T1, Heat shock protein HSP 90-beta; settings: HCT-116, dose 300-1000 nM, time 24.0 hrs; remark: listed apart in the source
[7] = target: T1, Heat shock protein HSP 90-beta; settings: HCT-116, dose 300-1000 nM, time 24.0 hrs; remark: listed apart in the source
[8] = target: T1, Heat shock protein HSP 90-beta; settings: HCT-116, dose 300-1000 nM, time 24.0 hrs; remark: listed apart in the source
[9] = target: T2, Heat shock protein HSP 90-alpha; settings: HCT-116, dose 300-1000 nM, time 24.0 hrs
PC-3 = experiment: Growth inhibition of human PC-3 cells incubated for 72 hrs by Cell Titer-Glo luminescent cell viability assay; format: functional
[10] = Growth inhibition of human LNCaP-LN3 cells incubated for 72 hrs by Cell Titer-Glo luminescent cell viability assay; format: functional
UMUC3 = settings: time 72 hrs
SK-BR-3 [11] = experiment: Induction of heat shock response in human SK-BR-3 cells at 1 uM incubated for 18 hrs by Western blot analysis; format: cell-based; settings: sk-br-3, 18 h
Endoplasmin = Endoplasmin (Canis lupus familiaris, UniProt P41148); experiment: Inhibition of FITC-GDA binding to dog GRP94 incubated for 2 hrs by fluorescence polarization assay
Sequence of Endoplasmin (P41148 whole entry): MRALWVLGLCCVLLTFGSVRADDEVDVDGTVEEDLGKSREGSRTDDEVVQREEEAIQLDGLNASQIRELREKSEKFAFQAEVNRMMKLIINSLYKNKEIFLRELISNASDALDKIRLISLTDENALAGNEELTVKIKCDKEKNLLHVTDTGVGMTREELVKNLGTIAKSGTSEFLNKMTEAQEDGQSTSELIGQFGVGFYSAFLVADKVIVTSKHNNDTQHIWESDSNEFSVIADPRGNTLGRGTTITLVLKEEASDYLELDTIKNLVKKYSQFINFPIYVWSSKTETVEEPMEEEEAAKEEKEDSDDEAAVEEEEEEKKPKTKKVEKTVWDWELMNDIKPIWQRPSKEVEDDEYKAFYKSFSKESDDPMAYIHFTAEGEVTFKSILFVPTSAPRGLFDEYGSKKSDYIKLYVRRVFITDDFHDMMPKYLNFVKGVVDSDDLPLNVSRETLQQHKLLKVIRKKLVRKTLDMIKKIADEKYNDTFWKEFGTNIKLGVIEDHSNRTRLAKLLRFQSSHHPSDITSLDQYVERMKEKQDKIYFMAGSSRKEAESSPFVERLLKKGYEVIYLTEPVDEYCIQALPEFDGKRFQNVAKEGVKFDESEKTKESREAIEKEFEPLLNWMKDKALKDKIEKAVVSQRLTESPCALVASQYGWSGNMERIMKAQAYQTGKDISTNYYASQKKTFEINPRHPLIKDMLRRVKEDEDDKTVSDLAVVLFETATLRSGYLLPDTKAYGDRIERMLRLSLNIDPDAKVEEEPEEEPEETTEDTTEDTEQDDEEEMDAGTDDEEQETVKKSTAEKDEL

T1 sequence (P08238 whole entry): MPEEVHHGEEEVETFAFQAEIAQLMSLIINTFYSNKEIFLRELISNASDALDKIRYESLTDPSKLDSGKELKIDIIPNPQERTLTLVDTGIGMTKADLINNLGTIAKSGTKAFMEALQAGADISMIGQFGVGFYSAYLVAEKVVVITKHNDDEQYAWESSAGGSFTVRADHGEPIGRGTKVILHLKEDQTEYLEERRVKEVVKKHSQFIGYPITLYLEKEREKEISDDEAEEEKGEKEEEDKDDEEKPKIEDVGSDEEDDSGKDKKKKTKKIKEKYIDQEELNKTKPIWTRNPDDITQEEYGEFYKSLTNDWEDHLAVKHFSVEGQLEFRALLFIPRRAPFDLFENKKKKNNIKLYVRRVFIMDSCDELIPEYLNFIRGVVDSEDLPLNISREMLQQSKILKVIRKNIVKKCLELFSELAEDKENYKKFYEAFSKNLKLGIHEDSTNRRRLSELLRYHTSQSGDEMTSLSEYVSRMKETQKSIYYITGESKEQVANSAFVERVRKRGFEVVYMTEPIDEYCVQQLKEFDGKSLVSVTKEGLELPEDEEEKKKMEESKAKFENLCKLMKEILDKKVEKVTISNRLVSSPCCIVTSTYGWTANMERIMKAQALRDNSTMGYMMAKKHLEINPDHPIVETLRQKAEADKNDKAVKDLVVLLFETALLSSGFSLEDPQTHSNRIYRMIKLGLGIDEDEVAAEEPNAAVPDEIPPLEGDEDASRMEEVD

Row | SMILES | IC50 [1] [nM] | IC50 [2] [nM] | further results
1 | CCCc1cc2cc(-n3nc(C)c4c3CC(C)(C)CC4=O)cc(NC3CCN(C)CC3)c2c(=O)[nH]1 | 513 | 17100 | 
2 | COCc1cc2cc(-n3nc(C)c4c3CC(C)(C)CC4=O)cc(N[C@H]3CC[C@H](O)CC3)c2c(=O)[nH]1 | 159 | 306 | 
3 | Cc1nn(-c2cc(N[C@H]3CC[C@H](O)CC3)c3c(=O)[nH]c(C(C)C)cc3c2)c2c1C(=O)CC(C)(C)C2 | 51 | 173 | 
4 | CCCc1cc2cc(-n3nc(C)c4c3CC(C)(C)CC4=O)cc(N3CCC(O)CC3)c2c(=O)[nH]1 |  |  | Activity (SK-BR-3 [3]): Non-Toxic
5 | CCCC1Cc2cc(-n3nc(C)c4c3CC(C)(C)CC4=O)cc(N[C@H]3CC[C@H](O)CC3)c2C(=O)N1 (stereo partly drawn) | 33 | 1600 | GI50 [4]: < 100 nM; inhibition [5]: Active; inhibition [6]: Active; inhibition [7]: Active; inhibition [8]: Active; inhibition [9]: inactive
6 | CCCc1cc2cc(-n3nc(C)c4c3CC(C)(C)CC4=O)cc(N[C@H]3CC[C@H](O)CC3)c2c(=O)[nH]1 |  |  | GI50 [4]: < 100 nM; GI50 (PC-3): 1560 nM; GI50 [10]: 1070 nM; GI50 (UMUC3): 450 nM
7 | CCCCc1cc2cc(-n3nc(C)c4c3CC(C)(C)CC4=O)cc(N[C@H]3CC[C@H](O)CC3)c2c(=O)[nH]1 | 156 | > 50000 | 
8 | CCCc1cc2cc(-n3nc(C)c4c3CC(C)(C)CC4=O)cc(N3CCN(C)CC3)c2c(=O)[nH]1 | 426 | 8520 | 
9 | Cc1cc2cc(-n3nc(C)c4c3CC(C)(C)CC4=O)cc(N[C@H]3CC[C@H](O)CC3)c2c(=O)[nH]1 | 101 | 294 | 
10 | COC1=C2C[C@@H](C)C[C@H](OC)[C@H](O)[C@@H](C)/C=C(\C)[C@H](OC(N)=O)[C@@H](OC)/C=C\C=C(/C)C(=O)NC(=CC1=O)C2=O [GELDANAMYCIN] |  |  | Activity (SK-BR-3 [11]): Toxic
11 | CCCc1cc2cc(-n3nc(C)c4c3CC(C)(C)CC4=O)cc(N3CCOCC3)c2c(=O)[nH]1 | 121 | > 50000 | 
12 | Cc1nn(-c2cc(N[C@H]3CC[C@H](O)CC3)c3c(=O)[nH]c(C4CC4)cc3c2)c2c1C(=O)CC(C)(C)C2 | 946 | 1880 | 
13 | CC(C)c1cc(C(=O)N2Cc3ccccc3C2)c(O)c2cnoc12 |  |  | IC50 (Endoplasmin): 8480 nM
14 | CCc1cc2cc(-n3nc(C)c4c3CC(C)(C)CC4=O)cc(N[C@H]3CC[C@H](O)CC3)c2c(=O)[nH]1 | 68 | 180 | 
15 | Cc1nn(-c2cc(N[C@H]3CC[C@H](O)CC3)c3c(=O)[nH]c(C(C)(C)C)cc3c2)c2c1C(=O)CC(C)(C)C2 | > 50000 | > 50000 | 
16 | CCCc1cc2cc(-n3nc(C)c4c3CC(C)(C)CC4=O)cc(N(C)CCN(CC)CC)c2c(=O)[nH]1 | 4460 | > 50000 | 
17 | Cc1nn(-c2cc(N[C@H]3CC[C@H](O)CC3)c3c(=O)[nH]c(CC(C)C)cc3c2)c2c1C(=O)CC(C)(C)C2 | 264 | > 50000 | 
18 | CCCC1Cc2cc(-n3nc(C)c4c3CC(C)(C)CC4=O)cc(N3CCC(O)CC3)c2C(=O)N1 (stereo not drawn) | > 5000 | > 10000 | 
19 | CCCc1cc2cc(-n3nc(C)c4c3CC(C)(C)CC4=O)cc(N3CCNCC3)c2c(=O)[nH]1 | 4470 | > 50000 | 
20 | Cc1cn(-c2cc3c(c(C4CCCC4)c2)C(=O)NCC3)c2c1C(=O)CC(C)(C)C2 |  |  | IC50 (Endoplasmin): > 10000 nM
21 | Cc1nn(-c2cc(N[C@H]3CC[C@H](O)CC3)c3c(=O)[nH]c(CO)cc3c2)c2c1C(=O)CC(C)(C)C2 | 233 | 824 | 
22 | CCCc1cc2cc(-n3nc(C)c4c3CC(C)(C)CC4=O)cc(N3CCN(C(=O)OC(C)(C)C)CC3)c2c(=O)[nH]1 | 463 | > 50000 | 

Reference: ChEMBL document CHEMBL4706657, “The Development of Hsp90β-Selective Inhibitors to Overcome Detriments Associated with pan-Hsp90 Inhibition” (J Med Chem, 2021)
